Here are results for 38 compounds from patent publication US6574913B2, “Semiochemical and sonic signals for monitoring and control of clothes moths” (priority 2001, dated 2003).

In one test the test system is T. bisselliella. In words: Arena bioassay: captures of moths on sticky traps baited with test or control stimuli. Conditions: Exps. 29-31; 16:Ester 480 ng plus Z9-16:Ester 840 ng tested together. It counts as in vivo, Tineola bisselliella. The procedure: Tactic responses of T. bisselliella to volatile stimuli from larval habitat were assessed in a closed cylindrical Plexiglas container (125 cm diameter, 60 cm height). Thin cardboard discs (10 cm diameter) coated with Tanglefoot on the upper side were placed on the arena floor 80 cm apart from each other. Platforms suspended above the centre of the coated discs supported randomly assigned test or control stimuli. Control stimuli consisted of cardboard silhouettes visually resembling test stimuli. Per experiment 10 replicates with 25 adult moths each were employed. Moths were released during the scotophase from a Petri dish in the centre of the arena after 30-min of acclimation. After 12 hours of experimental time, moths captured on sticky discs (FIG. 1) were recorded as responders and statistically analysed.
Turning to `CCCCCC/C=C\CCCCCCCC(=O)OC` [(Z)-9-hexadecenoic acid methyl ester], the “trap captures, attraction by synthetic male pheromone components” value is “attracted both male and virgin female T. bisselliella”.

Turning to `CCCCCCCCCCCCCCCC(=O)OC` [hexadecanoic acid methyl ester], the “trap captures, attraction by synthetic male pheromone components” value is “attracted both male and virgin female T. bisselliella”.

Staying with this test, now noted: Exps. 34-37; tested together in various ratios.
As for `CCCC/C=C\CCCCCCCCC/C=C/C=O` [(E,Z)-2,13:octadecadienal], the “trap captures of males, attraction by synthetic female pheromone components” value is reported as “attracted male T. bisselliella”.

Consider `CCCC/C=C\CCCCCCCCC/C=C/CO` [(E,Z)-2,13:octadecadienol], for which the “trap captures of males, attraction by synthetic female pheromone components” value is reported as “attracted male T. bisselliella”.

The test is the same for the next values; noted with them: geranylacetone (44 ng) and nonanal (3.5 μg) tested together, equivalent quantities; female or male moths.
As to `CC(=O)CC/C=C(\C)CCC=C(C)C` [geranylacetone], the “trap captures versus dried muskrat pelt” value is “more attractive than natural (muskrat) pelt”.

With `CCCCCCCCC=O` [nonanal], the “trap captures versus dried muskrat pelt” value was “more attractive than natural (muskrat) pelt”.

In another test the test system is T. bisselliella antenna. The test is described as follows: Coupled gas chromatographic-electroantennographic detection (GC-EAD). Conditions: male and gravid female T. bisselliella antenna; 5 pelt-min of squirrel pelt volatile extract. Set-up: species or system Tineola bisselliella. As to the method: Samples of animal pelt (150 cm^2) were aerated for one week in a cylindrical Pyrex glass chamber. A water-aspirator was used to draw charcoal-filtered, humidified air at 2 L/min through the chamber and a glass column (14 cm×13 mm O. D.) filled with Porapak Q. Volatiles captured on Porapak Q were eluted with 5 ml of redistilled pentane and the eluent concentrated to 2 ml by distillation in a 30 cm Dufton column, adjusting the volatile extract so that 2 μl equalled 5 pelt-min of volatile collection. Aliquots of 2.5 pelt-min equivalents of Porapak Q-captured volatile extracts were analysed by coupled gas chromatographic-electroantennographic detection (GC-EAD) (28) (FIG. 2).
FIG. 2 illustrates flame ionization detector (FID) and electroantennographic detector (EAD ♂: male T. bisselliella antenna; EAD ♀: gravid female T. bisselliella antenna) responses to 5 pelt-min of squirrel pelt volatile extract. Chromatography: Hewlett Packard (HP) 5890A gas chromatograph equipped with a fused silica column (30 m×0.25 mm ID) coated with DB-5; linear flow velocity of carrier gas: 35 cm/sec; injector and FID detector temperature: 240° C.; temperature program: 1 min at 50° C., 20° C./min to 70° C. then 7.5° C./min to 280° C. (J & W Scientific, Folsom, Calif. 95630). EAD-active compounds were analyzed by GC-mass spectrometry (MS) in full scan electron impact (EI) and chemical ionization (isobutane) (CI) modes, using a Varian Saturn II Ion Trap GC-MS and a HP 5985B GC-MS. Antennally-active compounds were identified as follows: 1. hexanal (20.0); 2. heptanal (35.0); 3. octanal (55.0); 4. nonanal (80.0); 5. decanal (20.0); 6. dodecanal (4.0); 7. tridecanal (6.0); 8. tetradecanal (5.0); 9. pentadecanal (0.8); 10. hexadecanal (1.0); 11. heptadecanal (0.7); 12. octadecanal (0.1); 13. heptanol (10.0); 14. nonanol (10.0); 15. decanol (12.0); 16. undecanol (200.0); 17. dodecanol (10.0); 18. tridecanol (70.0); 19. tetradecanol (3.0); 20. pentadecanol (2.0); 21. hexadecanol (0.3); 22. heptadecanol (0.5); 23. octadecanol (0.1); 24. tetradecane (20.0); 25. pentadecane (100.0); 26. hexadecane (100.0); 27. eicosane (20.0); 28. uneicosane (0.7); 29.2-undecanal (4.0); 30. E2-nonenal (9.0); 31. E2-decenal (11.0); 32. geranylacetone (1.0). Numbers in brackets refer to nanogram quantities present in 15 pelt-min of aeration of dried, untanned animal pelt (150 cm^2).
The bodies of two hundred 24-48 hour old virgin male T. bisselliella were extracted for 15 min in methanol.
FIG. 6 illustrates flame ionization detector (FID) and electroantennographic detection (EAD: male T. bisselliella antenna) responses to one male equivalent of male T. bisselliella body extract. EAD-active compounds 1-3 were identified by GC-mass spectrometry as 1. hexadecanoic acid methyl ester; 2. (Z)-9-hexadecenoic acid methyl ester; and 3. octadecanoic acid methyl ester. […] Chromatography: Hewlett Packard (HP) 5890A gas chromatograph equipped with a fused silica column (30 m×0.32 mm ID) coated with DB-23 (J & W Scientific, Folsom, Calif. 95630); linear flow velocity of carrier gas: 35 cm/sec; injector and FID detector temperature: 240° C.; temperature program: 1 min at 50° C., 10° C./min to 200° C. EAD-active compounds were identified by GC-mass spectrometry (MS) in full scan electron impact (EI) mode using a Varian Saturn II Ion Trap GC-MS.
Terminal abdominal segments with pheromone glands of one-hundred 12-48 hour-old virgin females were severed and extracted for 5-15 min in hexane.
FIG. 10 illustrates flame ionization detector (FID) and electroantennographic detector (EAD: male T. bisselliella antenna) responses to one female equivalent of female T. bisselliella pheromone gland extract. EAD-active compounds 1-3 were identified as 1. (E,Z)-2,13:octadecadienol (E2,Z13-18:OH) and 2. (E,Z)-2,13:octadecadienal (E2,Z13-18:Ald). […]
For the compound `CCCCCCCCCC(C)=O` [2-undecanal], the “electroantennographic detector (EAD) response to components of squirrel pelt volatile extract” value (“electroantennographic detector” for short) was “Antennally-active”.

On to `CCCCCCC/C=C/C=O` [E2-decenal], for which the “electroantennographic detector” value is “Antennally-active”.

For `CCCCCC/C=C/C=O` [E2-nonenal], the “electroantennographic detector” value was “Antennally-active”.

Regarding `CCCCCCCCCC=O` [decanal], the “electroantennographic detector” value is reported as “Antennally-active”.

Consider `CCCCCCCCCCO` [decanol], for which the “electroantennographic detector” value was “Antennally-active”.

Consider `CCCCCCCCCCCC=O` [dodecanal], for which the “electroantennographic detector” value is listed as “Antennally-active”.

Consider `CCCCCCCCCCCCO` [dodecanol], for which the “electroantennographic detector” value is listed as “Antennally-active”.

On to `CCCCCCCCCCCCCCCCCCCC` [eicosane], for which the “electroantennographic detector” value is “Antennally-active”.

Regarding `CC(=O)CC/C=C(\C)CCC=C(C)C` [geranylacetone], the “electroantennographic detector” value is on record as “Antennally-active”.

As for `CCCCCCCCCCCCCCCCC=O` [heptadecanal], the “electroantennographic detector” value was “Antennally-active”.

On to `CCCCCCCCCCCCCCCCCO` [heptadecanol], for which the “electroantennographic detector” value is “Antennally-active”.

For the compound `CCCCCCC=O` [heptanal], the “electroantennographic detector” value was “Antennally-active”.

As to `CCCCCCCO` [heptanol], the “electroantennographic detector” value is “Antennally-active”.

Turning to `CCCCCCCCCCCCCCCC=O` [hexadecanal], the “electroantennographic detector” value is given as “Antennally-active”.

`CCCCCCCCCCCCCCCC` [hexadecane]: the “electroantennographic detector” value is “Antennally-active”.

Regarding `CCCCCCCCCCCCCCCCO` [hexadecanol], the “electroantennographic detector” value is given as “Antennally-active”.

Take `CCCCCC=O` [hexanal]: the “electroantennographic detector” value was “Antennally-active”.

Turning to `CCCCCCCCC=O` [nonanal], the “electroantennographic detector” value is given as “Antennally-active”.

With `CCCCCCCCCO` [nonanol], the “electroantennographic detector” value is “Antennally-active”.

As for `CCCCCCCCCCCCCCCCCC=O` [octadecanal], the “electroantennographic detector” value is “Antennally-active”.

As to `CCCCCCCCCCCCCCCCCCO` [octadecanol], the “electroantennographic detector” value is “Antennally-active”.

As for `CCCCCCCC=O` [octanal], the “electroantennographic detector” value was “Antennally-active”.

With `CCCCCCCCCCCCCCC=O` [pentadecanal], the “electroantennographic detector” value is “Antennally-active”.

For the compound `CCCCCCCCCCCCCCC` [pentadecane], the “electroantennographic detector” value is on record as “Antennally-active”.

On to `CCCCCCCCCCCCCCCO` [pentadecanol], for which the “electroantennographic detector” value was “Antennally-active”.

Turning to `CCCCCCCCCCCCCC=O` [tetradecanal], the “electroantennographic detector” value is “Antennally-active”.

In the case of `CCCCCCCCCCCCCC` [tetradecane], the “electroantennographic detector” value is given as “Antennally-active”.

`CCCCCCCCCCCCCCO` [tetradecanol]: the “electroantennographic detector” value is recorded as “Antennally-active”.

As to `CCCCCCCCCCCCC=O` [tridecanal], the “electroantennographic detector” value is listed as “Antennally-active”.

With `CCCCCCCCCCCCCO` [tridecanol], the “electroantennographic detector” value is listed as “Antennally-active”.

As to `CCCCCCCCCCCO` [undecanol], the “electroantennographic detector” value is reported as “Antennally-active”.

As to `CCCCCCCCCCCCCCCCCCCCC` [uneicosane], the “electroantennographic detector” value is on record as “Antennally-active”.

The same test, now with this note: male antenna, one female equivalent.
For the compound `CCCC/C=C\CCCCCCCCC/C=C/C=O` [(E,Z)-2,13:octadecadienal], the “EAD response to components of female T. bisselliella pheromone gland extract” value was “EAD-active”.

As to `CCCC/C=C\CCCCCCCCC/C=C/CO` [(E,Z)-2,13:octadecadienol], the “EAD response to components of female T. bisselliella pheromone gland extract” value was “EAD-active”.

The test is the same for the next values; noted with them: male antenna, one male equivalent; similar responses with female antennae.
For the compound `CCCCCC/C=C\CCCCCCCC(=O)OC` [(Z)-9-hexadecenoic acid methyl ester], the “EAD response to components of male T. bisselliella body extract” value is “EAD-active”.

On to `CCCCCCCCCCCCCCCC(=O)OC` [hexadecanoic acid methyl ester], for which the “EAD response to components of male T. bisselliella body extract” value is “EAD-active”.

On to `CCCCCCCCCCCCCCCCCC(=O)OC` [octadecanoic acid methyl ester], for which the “EAD response to components of male T. bisselliella body extract” value was “EAD-active”.

For a further test, the system named is T. bisselliella.
Assay: not given
Conditions: literature refs 16, 17; cited from earlier work.
With `CCCC/C=C\CCCCCCCCC/C=C/C=O` [(E,Z)-2,13:octadecadienal], the “attractiveness as reported sex pheromone components” value was “only moderately attractive”.

In the case of `CCCCCCCCCCCCCCC/C=C/C=O` [E2-octadecenal, reference compound], the “attractiveness as reported sex pheromone components” value is given as “only moderately attractive”.
